This note sets out measurements from ChEMBL document CHEMBL5236566, “Design and synthesis of novel pipernonaline derivatives as anti-austerity agents against human pancreatic cancer PANC-1 cells” (Bioorg Med Chem, 2022).

Active and inactive are the calls of the source. The rule behind the calls is not given here.

Data set [1] relates to PANC-1. In words: Cytotoxicity against human PANC-1 cells assessed as reduction in cell viability incubated for 24 hrs in nutrient-rich Dulbecco's modified Eagle's medium by WST-8 assay. The format is functional, cell-based. Particulars: PANC-1, 24 h. In general terms: Tetrazolium assays rely on reduction of a dye to a coloured formazan, in cell work by metabolically active cells.

In data set [2] the test system is PANC-1. Description: Preferential cytotoxicity against human PANC-1 cells assessed as reduction in cell viability incubated for 24 hrs in nutrient-deprived medium by WST-8 assay. The format is functional.
A short description of data set [3]: Selectivity index, ratio of IC50 for cytotoxicity against human PANC-1 cells in nutrient-rich Dulbecco's modified Eagle's medium to PC50 for preferential cytotoxicity against human PANC-1 cells in nutrient-deprived medium. The format is toxicity, cell-based.
Data set [4] concerns PANC-1. Description: Potency index, ratio of pipernonaline PC50 to test compound PC50 for Preferential cytotoxicity against human PANC-1 cells assessed as reduction in cell viability incubated for 24 hrs in nutrient-deprived medium by WST-8 assay. The format is functional.
Data set [5] concerns the target RAC-alpha serine/threonine-protein kinase (Homo sapiens) (UniProt P31749). Description: Inhibition of Akt activation in human PANC-1 cells assessed as decrease in Akt phosphorylation at 5 uM incubated for 6 hrs in nutrient-deprived medium by Western blot analysis. The format is cell-based.
The target is the same in data set [6]. Description: Inhibition of Akt activation in human PANC-1 cells assessed as effect on total Akt level at 1.25 to 5 uM incubated for 6 hrs in nutrient-deprived medium by Western blot analysis. In kind it is cell-based. Particulars: dose 1.25-5 µM. A general note: A western blot detects proteins with antibodies after separation by electrophoresis.
The target is the same in data set [7]. Description: Inhibition of Akt activation in human PANC-1 cells assessed as effect on mTOR level at 1.25 to 5 uM incubated for 6 hrs in nutrient-deprived medium by Western blot analysis. The format is cell-based. Conditions: dose 1.25-5 µM.
For data set [8] the target is unchanged. In words: Inhibition of Akt activation in human PANC-1 cells assessed as effect on Atg3 level at 1.25 to 5 uM incubated for 6 hrs in nutrient-deprived medium by Western blot analysis. In kind it is cell-based. Particulars: dose 1.25-5 µM.
The target is the same in data set [9]. Description: Inhibition of Akt activation in human PANC-1 cells assessed as effect on Atg7 level at 1.25 to 5 uM incubated for 6 hrs in nutrient-deprived medium by Western blot analysis. In kind it is cell-based. Particulars: dose 1.25-5 µM.
The target is the same in data set [10]. In words: Inhibition of Akt activation in human PANC-1 cells assessed as upregulation of LC3-II level at 1.25 to 5 uM incubated for 6 hrs in nutrient-deprived medium by Western blot analysis. In kind it is cell-based. Particulars: dose 1.25-5 µM.
Data set [11] has as its system PANC-1. In words: Inhibition of cell migration in human PANC-1 cells assessed as reduction in migration velocity at 20 uM measured every 15 min for 24 hrs in nutrient-rich Dulbecco's modified Eagle's medium by quantitative real-time cell migration assay. The format is functional.
Data set [12] relates to PANC-1. Description: Inhibition of cell migration in human PANC-1 cells assessed as reduction in cell migration at 20 uM measured at 12 hrs in nutrient-rich Dulbecco's modified Eagle's medium by quantitative real-time cell migration assay relative to control. In kind it is functional.
Data set [13] has as its system PANC-1. In words: Inhibition of cell migration in human PANC-1 cells assessed as reduction in cell migration at 20 uM measured at 18 hrs in nutrient-rich Dulbecco's modified Eagle's medium by quantitative real-time cell migration assay relative to control. The format is functional.

RAC-alpha serine/threonine-protein kinase (Homo sapiens), sequence (P31749 whole entry): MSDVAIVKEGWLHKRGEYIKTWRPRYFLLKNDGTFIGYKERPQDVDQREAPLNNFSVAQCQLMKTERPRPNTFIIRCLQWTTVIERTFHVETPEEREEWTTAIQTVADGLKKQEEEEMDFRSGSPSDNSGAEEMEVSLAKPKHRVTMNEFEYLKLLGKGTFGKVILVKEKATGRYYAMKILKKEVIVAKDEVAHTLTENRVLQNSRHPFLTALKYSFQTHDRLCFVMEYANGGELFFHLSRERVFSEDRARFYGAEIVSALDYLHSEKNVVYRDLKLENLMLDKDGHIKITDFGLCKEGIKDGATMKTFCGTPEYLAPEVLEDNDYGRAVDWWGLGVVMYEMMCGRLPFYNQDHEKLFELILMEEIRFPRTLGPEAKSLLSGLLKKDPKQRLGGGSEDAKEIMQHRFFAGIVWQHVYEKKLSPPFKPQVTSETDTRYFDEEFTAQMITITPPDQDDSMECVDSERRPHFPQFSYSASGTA

The term IC50 denotes the point on the concentration scale where inhibition reaches its midpoint. Regarding `O=C(CCCCCC/C=C/c1ccccc1)N1CCCCC1`, the IC50 in the data set with PANC-1 [1] is above 100 µM. Besides, the PC50 in the data set on PANC-1 [2] was 9.6 µM. Also, in [3], the selectivity ratio came out at 7.4.
Turning to `O=C(/C=C/CCCCCCc1ccccc1)N[C@H]1CC[C@H](O)CC1`, the IC50 with PANC-1 [1] was above 100 µM. Also, the PC50 with PANC-1 [2] turned out to be 52.1 µM. In addition, in data set [3], the selectivity ratio is above 1.9.
On the same counts, the results for `Cc1ccc(CCCCCCCCC(=O)N2CCCCC2)cc1` are above 100 µM, 4.1 µM and above 24.4.
In the same order, the values of `O=C(/C=C/CCCCCCc1ccccc1)Nc1ccccc1` are above 100 µM, 8.8 µM and above 11.4.
Take `O=C(CCCCCCCc1ccccc1)N1CCCCC1`: the IC50 in the data set on PANC-1 [1] is above 100 µM. Also, the PC50 in the data set on PANC-1 [2] is 6.9 µM. Besides, the selectivity ratio in data set [3] is above 14.5.
In the case of `O=C(CCCCCCCCc1ccccc1Cl)N1CCCCC1`, the IC50 in the data set with PANC-1 [1] was above 100 µM. Further, the PC50 in the data set on PANC-1 [2] came to 3.6 µM. Further, the selectivity ratio in [3] is above 27.8.
On the same counts, the results for `O=C(/C=C/CCCCCCc1ccccc1)N1CCCC1` are above 100 µM, 4.1 µM and above 24.4.
In the same order, the values of `O=C(CCCCCCCCc1ccccc1F)N1CCCCC1` are 98.9 µM, 4.6 µM and 21.5.
On the same counts, the results for `O=C(CCCCCCCCCc1ccccc1)N1CCCCC1` are above 100 µM, 6.5 µM and above 15.4.
In the case of `O=C(CCCCCCCCC1CCCCC1)N1CCCCC1`, in the data set with PANC-1 [1], the 50% inhibitory concentration (IC50) is above 100 µM. For the same molecule, the PC50 in the data set with PANC-1 [2] is 12 µM. The selectivity ratio in data set [3] was above 8.3.
On the same counts, the results for `O=C(CCCCCCCCCCc1ccccc1)N1CCCCC1` are above 100 µM, 6.6 µM and above 15.2.
On the same counts, the results for `O=C(CCCCCCCCc1cccc(F)c1)N1CCCCC1` are above 100 µM, 6.6 µM and above 15.2.
On the same counts, the results for `O=C(/C=C/CCCCCCc1ccccc1)N1CCC(O)CC1` are above 100 µM, 9.4 µM and above 10.6.
As for `O=C(CCCCCCCCc1ccc2ccccc2c1)N1CCCCC1`, in the data set on PANC-1 [1], the IC50 stood at 87 µM. Also, in the data set with PANC-1 [2], the PC50 was determined as 6 µM. The selectivity ratio in [3] turned out to be 14.5.
In the case of `S=C(CCCCCCCCc1ccccc1)N1CCCCC1`, the IC50 with PANC-1 [1] was above 100 µM. Besides, the PC50 in the data set with PANC-1 [2] came out at 2.2 µM. Also, in data set [3], the selectivity ratio was above 45.5.
On the same counts, the results for `COc1ccc(CCCCCCCCC(=O)N2CCCCC2)cc1` are 89.3 µM, 3.8 µM and 23.5.
As for `O=C(/C=C/CCCCCCc1ccccc1)N1CCOCC1`, in the data set on PANC-1 [1], the IC50 is above 100 µM. In addition, in the data set on PANC-1 [2], the PC50 came to 12.5 µM. In addition, in data set [3], the selectivity ratio is above 8.
With `O=C(CCCCCCCCc1ccc(F)cc1)N1CCCCC1`, the IC50 in the data set with PANC-1 [1] turned out to be 99.8 µM. Besides, the PC50 in the data set with PANC-1 [2] stood at 3.5 µM. Besides, in data set [3], the selectivity ratio is 28.5.
In the same order, the values of `O=C(CCCCCCCCc1ccc(Cl)cc1)N1CCCCC1` are 65.5 µM, 3.3 µM and 19.8.
In the same order, the values of `O=C(CCCCCCCCc1ccc(C(F)(F)F)cc1)N1CCCCC1` are 54 µM, 3.2 µM and 16.9.
One may read the inhibition as the change of the read-out against control, counted positive when it falls. As for `O=C(CCCCCCCCc1ccccc1)N1CCCCC1`, the IC50 in the data set with PANC-1 [1] is above 100 µM. In addition, the PC50 in the data set on PANC-1 [2] was 1.08 µM. The selectivity ratio in data set [3] was above 90.9. In addition, the Ratio in the data set with PANC-1 [4] came to 7. In addition, the inhibition entry in [5] and in data set [10] was “Active” in each case. Also, the inhibition result in data set [6], in data set [7], in data set [8] and in [9] was “inactive” throughout. Further, the Activity with PANC-1 [11] is listed as 10.6 um2/s. Further, the inhibition at 20 µM was found to be 50% with PANC-1 [12] and 78% in the data set on PANC-1 [13].
Regarding `Nc1ccn([C@@H]2O[C@H](CO)[C@@H](O)C2(F)F)c(=O)n1` [GEMCITABINE], in the data set with PANC-1 [1], the IC50 is above 100 µM. The PC50 in the data set on PANC-1 [2] was above 100 µM.
Take `O=C(/C=C/CCCCC#Cc1ccccc1)N1CCCCC1`: the IC50 in the data set on PANC-1 [1] is above 100 µM. In addition, in the data set with PANC-1 [2], the PC50 was 2.2 µM. For the same molecule, the selectivity ratio in data set [3] is above 45.5.
In the same order, the values of `O=C(CCCOCCCCc1ccccc1)N1CCCCC1` are above 100 µM, 26.6 µM and above 3.8.
With `O=C(/C=C/CCCCCCc1ccccc1)N1CCCCC1`, the IC50 in the data set on PANC-1 [1] was above 100 µM. Besides, in the data set on PANC-1 [2], the PC50 was 1.7 µM. The selectivity ratio in data set [3] was above 58.8.
In the same order, the values of `O=C(CCCCCCCCc1ccc(O)cc1)N1CCCCC1` are above 100 µM, 7.8 µM and above 12.8.
In the same order, the values of `O=C(/C=C/CCCCCCc1ccccc1)N1CCCCCC1` are above 100 µM, 3.1 µM and above 32.3.
Regarding `O=C(/C=C/CCCC/C=C/c1ccc2c(c1)OCO2)N1CCCCC1` [PIPERNONALINE], the concentration for half-maximal inhibition (IC50) in the data set on PANC-1 [1] was 54.9 µM. Also, in the data set on PANC-1 [2], the PC50 was 7.2 µM. In addition, in data set [3], the selectivity ratio turned out to be 7.6.
On the same counts, the results for `O=C(/C=C\CCCCCCc1ccccc1)N1CCCCC1` are above 100 µM, 2.3 µM and above 43.5.
In the same order, the values of `O=C(CCCCCCc1ccccc1)N1CCCCC1` are above 100 µM, 7.1 µM and above 14.1.
Turning to `O=C(/C=C/CCCCCCc1ccccc1)NCc1ccccc1`, the IC50 in the data set on PANC-1 [1] is above 100 µM. In the data set on PANC-1 [2], the PC50 amounted to 6.1 µM. In addition, the selectivity ratio in data set [3] was above 16.4.
As for `N#Cc1ccc(CCCCCCCCC(=O)N2CCCCC2)cc1`, in the data set on PANC-1 [1], the IC50 was above 100 µM. The PC50 in the data set with PANC-1 [2] amounted to 4 µM. In addition, the selectivity ratio in [3] is above 25.
For `O=C(CCCCCCCCc1cccc(Cl)c1)N1CCCCC1`, in the data set on PANC-1 [1], the IC50 was above 100 µM. For the same molecule, the PC50 in the data set on PANC-1 [2] was 4.3 µM. The selectivity ratio in [3] was above 23.3.
